Test results as given in patent US10519504B2, “Methods for treatment of oncological disorders using epimetabolic shifters, multidimensional intracellular molecules, or environmental influencers” (Berg LLC, priority 2009, dated 2019).

Assays:
[1] = tested on: ATP Citrate Lyase (ACL); experiment: Western blot, ATP Citrate Lyase levels; format: cell-based, human; details: for ATP Citrate Lysase Normalized Intensity as % of control: glucose 5g, 48 h
Method: (§1) The whole cell pellets were resuspended one at a time in 1 mL of C7 buffer and transferred to labeled 15 mL tubes. The samples were then sonicated in the cold room on ice using 6 sonic pulses with the setting at #14. The samples were spun for a short time to 2500 g after sonication and the samples transferred to 2 ml tubes. The pH was verified of each sample (pH should be 9.0) using the foam remaining in the […] sample tubes.
After transfer each of the blots was placed in between 2 Whatman Filter papers and dried for 15-20 minutes. After drying the blots were labeled with the date, the type of samples and either blot 1 or blot 2 using a HB pencil. The molecular weight markers were outlined with the pencil and with single lines for the blue and a doublet for the colored markers. The blots were activated with methanol for 5 seconds, washed with water for 5 minutes, and TBST for 15 minutes. The blots were blocked for 1 hour with 5% blocking reagent in TBS-T at room temperature and then washed 3 times with TBS-T (1X−15′; 2X5′ each). Blot 1 was probed with the primary antibody for IDH1 (Cell Signaling #3997) in TBST with 5% BSA (at 1:1000 dilutions) and blot 2 with the rabbit polyclonal antibody for ATP Citrate Lyase in 5% BSA (Cell Signaling #4332) at 1:1000 dilution by incubation overnight at 4 deg C. with shaking. After the overnight incubation with primary antibodies, the blots were washed 3 times with TBS-T (1X−15′; 2X5′ each) and probed with the secondary antibody (antirabbit; 1:10,000 dilution) for 1 h on the orbital tilting shaker at room temperature. After 1 h of incubation with secondary antibodies, the blots were washed 3 times with TBS-T (1X−15′; 2X5′ each) and then incubated with ECF reagent for 5 mins and then each blot scanned with 5100 Fuji Laser scanner at 25 uM resolution, 16 bit, green laser, at 400V and at 500 V.
The samples were processed and run on a 4-12% Bis-Tris Novex NuPAGE gel as described above. The gels were run, transferred and stained essentially as described above.
The Isocitrate dehydrogenase blot was stripped by incubating for 30 minutes with methanol, followed by two 10 minute washes with TBS-T, then 30 minutes of incubation with stripping buffer at 50 deg C., and followed by two washes with 100 ml or more of TBS-T for 30′ each. The blot was scanned in laser scanner to check for complete stripping. The blot was activated with methanol for 5 seconds, washed with water for 5 minutes, and TBST for 15 minutes. The blot was blocked for 1 hour with 5% blocking reagent in TBS-T at room temperature and then washed 3 times with TBS-T (1X−15′; 2X5′ each). This was then probed with the rabbit polyclonal antibody for ATP Citrate Lyase in 5% BSA (Cell Signaling #4332) at 1:1000 dilution overnight at 4 deg C. with shaking. After the overnight incubation with primary antibody for ATP Citrate Lyase, the membrane was washed 3 times with TBS-T (1X−15′; 2X5′ each) and probed with the secondary antibody (antirabbit; 1:10,000 dilution) for 1 h on the orbital tilting shaker at room temperature. After 1 h of incubation with secondary antibodies, the blot was washed 3 times with TBS-T (1X−15′; 2X5′ each) and then incubated with ECF reagent for 5 minutes and then each blot scanned with 5100 Fuji Laser scanner at 25 uM resolution, 16 bit, green laser, at 400V and at 500 V.
In this experiment (western blot experiment 3), and in all of the experiments described below in this Example (i.e., western blot experiments 4 through 9), the cells were additionally treated with either 5 mM glucose (“5G”) or 22 mM glucose (“22G”). The samples derived from the cells were processed and run on a 4-12% Bis-Tris Novex NuPAGE gel as described above. The gels were run, transferred and stained essentially as described above.
The levels of IDH1, ATP citrate lyase and actin levels were determined by probing the blots with primary antibodies for IDH1, ATP citrate lyase and actin, essentially as described above.

[2] = tested on: SKMEL-28 cells; experiment: 2-D gel electrophoresis proteomic analysis; format: cell-based
Method: Protein was isolated from the treated and control flask after 4, 8, 12, and 24 hours. For isolation of proteins, cells were washed three times with 5 mL of ice cold PBS at a pH of 7.4. The cells were then scraped in 3 mL of PBS, pelleted by centrifuge, and re-suspended in a lysis buffer at pH 7.4 (80 mM TRIS-HCl, 1% SDS, with protease and phosphotase inhibitors). Protein concentrations were quantified using the BCA method.
The gels were run in duplicate.
The first experimental set processed and evaluated by Western blot and 2-D gel electrophoresis was the skin cancer cell line SKMEL-28.
A comparative analysis of 943 spots across all twenty-four gels was performed, comparing the control sample against all of the treated samples. The analysis included the identification of spot changes over the time course due to increase, decrease, or post-translational modification.
The analysis found thirty-two statistically significant differential spot changes. […] The characterized peptides were searched against protein databases with Mascot and MSRAT software analysis to identify the protein (Table 2).

[3] = tested on: Isocitrate Dehydrogenase-1 (IDH-1); experiment: Western blot, IDH1 levels; format: cell-based, human
Method: as §1
Alkylation and reduction of samples was performed for each sample by adding 10 ul of 1M acrylamide, 25 ul of tributylphoshene and incubation for 90 mins with intermittent mixing. After incubation, 10 ul of 1M DTT was added and the tubes were spun at 20,000 g at 20 deg C. for 10 minutes and transferred the supernatant to labeled Amicon Ultra centrifugal filter units with a 10 k cut off (Millipore catalog #UFC 801024). The samples were spun for 15 minutes at 2500 g in 2 intervals. The conductivity was measured for Chaps alone as well as the samples using a conductivity meter. If the conductivity of samples is high, then 1 ml of chaps was added for buffer exchange and spun again at 2500 g until the volume was down to 250 ul. […]
The samples were processed as per standard protocols as described above and the amount of protein in each of the samples was determined by Bradford assay. […]

Structure (SMILES): COC1=C(OC)C(=O)C(C/C=C(\C)CC/C=C(\C)CC/C=C(\C)CC/C=C(\C)CC/C=C(\C)CC/C=C(\C)CC/C=C(\C)CC/C=C(\C)CC/C=C(\C)CCC=C(C)C)=C(C)C1=O [Q10, Coenzyme Q10]
- ATP Citrate Lysase Normalized Intensity as % of control ([1]; HepG2, 50 uM): 85 % of control
- ATP Citrate Lysase Normalized Intensity as % of control ([1]; HepG2, 100 uM): 79 % of control
- ATP Citrate Lysase Normalized Intensity as % of control ([1]; PACA2, 50 uM): 68 % of control
- ATP Citrate Lysase Normalized Intensity as % of control ([1]; PACA2, 100 uM): 42 % of control
- expression of ACL ([1]; cancer cells): dose-dependent decrease in the expression of ACL enzymes
- expression of ACL ([1]; normal cells): trend towards increased expression of ACL
- Transaldolase 1 level [2]: decrease of Transaldolase 1
- expression of IDH1 ([3]; HDFa, nFIB, HASMC): did not demonstrate significant changes in the expression pattern
- expression of IDH1 ([3]; cancer cell lines MCF-7, SKMEL28, HepG2, PaCa-2): increased expression of IDH1
